# Test results: patent US8247211B2, “Glycopeptide antibiotics” (American Cyanamid Company, priority 2001, dated 2012)
# What was measured:
# [1] = system: Streptococcus sp.; test: In vitro antibacterial evaluation: minimum inhibitory concentration (MIC), broth dilution method; format: cell-based
# Procedure, shortened: (§1)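 Inoculum: 5×10^5 CFU/mL. Range: 64-0.06 μg/mL. Medium: Muller-Hinton II […]; NCCLS M7-A2 broth dilution. Endpoint: lowest concentration inhibiting growth. Strains include methicillin-, penicillin- and/or vancomycin-resistant clinical isolates.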
# [2] = system: Escherichia coli; test: as above; format: cell-based; conditions: strain GC 4560
# Procedure, shortened: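 Susceptibility determined by NCCLS-recommended broth dilution (M7-A2), Muller-Hinton II […]. Concentration span 64-0.06 μg/mL, inoculum 5×10^5 CFU/mL. Isolates include strains resistant to methicillin, penicillin and/or vancomycin.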
# [3] = system: Enterococcus sp.; test: as above; format: cell-based
# Procedure, shortened: as §1
# [4] = system: Staphylococcus sp.; test: as above; format: cell-based; conditions: broth dilution, 18 hours at 35° C.
# Procedure, shortened: as §1
# [5] = Anatomic pathology (heart and kidney histopathology) in mice; format: in vivo, CD-1 mice; conditions: 20 mg/kg intravenously daily for 9 days, microscopic histopathology on day 10
# Procedure, shortened: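 Histopathology on H&E-stained, paraffin-embedded sections, subjectively scored (slight, mild, moderate, marked, severe) relative to untreated controls. Dosing: glycopeptide antibiotics 20 mg/kg intravenously once daily ×9 days in 20-day-old CD-1 mice, n=5 per group including vehicle.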
# [6] = system: Staphylococcus aureus-SMITH (GC 4543); test: Acute lethal infection in mice (ED50); format: in vivo; conditions: female CD-1 mice, intraperitoneal challenge, intravenous dose 30 min. after infection, 7 day survival ratios
# Procedure, shortened: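 ED50 derived from pooled 7-day survival in three separate experiments, five mice per dose level. Single intravenous dose 30 min after intraperitoneal infection of female CD-1 mice with enough bacteria to kill untreated animals in 24-48 h.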
smiles,measurement,setting,value
CC(c1ccccc1)C1NC(=O)CNC(=O)C(CO)NC(=O)C(C(O)C2CN(Cc3ccc4ccccc4c3)C(=N)N2C2OC(CO)C(O)C(O)C2O)NC(=O)C(C(O)C2CNC(=N)N2)NC(=O)C(Cc2ccc(OC3OC(CO)C(OC4OC5COC6(OC5C(O)C4O)C4CC5CC(C4)CC6C5)C(O)C3O)cc2)NC1=O (stereo not drawn) [Example 78],MIC Streptococcus agalactiae (GC 4564),"[1]; Streptococcus agalactiae (GC 4564), broth dilution, 18 hours at 35° C.",1 mg/L
same,MIC Streptococcus pneumoniae (ATCC 6301),"[1]; Streptococcus pneumoniae (ATCC 6301), broth dilution, 18 hours at 35° C.",1 mg/L
same,MIC Streptococcus pneumoniae (GC 1894),"[1]; Streptococcus pneumoniae (GC 1894), broth dilution, 18 hours at 35° C.",0.25 mg/L
same,MIC Streptococcus pneumoniae (GC 4565),"[1]; Streptococcus pneumoniae (GC 4565), broth dilution, 18 hours at 35° C.",2 mg/L
same,MIC Streptococcus pyogenes (GC 4563),"[1]; Streptococcus pyogenes (GC 4563), broth dilution, 18 hours at 35° C.",0.5 mg/L
same,MIC Streptococcus pneumoniae (ATCC 6301),[1]; strain ATCC 6301,1 mg/L
same,MIC Streptococcus pneumoniae (GC 1894),[1]; strain GC 1894,0.25 mg/L
same,MIC Streptococcus pyogenes (GC 4563),[1]; strain GC 4563,0.5 mg/L
same,MIC Streptococcus agalactiae (GC 4564),[1]; strain GC 4564,1 mg/L
same,MIC Streptococcus pneumoniae (GC 4565),[1]; strain GC 4565,2 mg/L
same,MIC Escherichia coli (GC 4560),[2],4 mg/L
same,MIC Enterococcus faecalis (GC 2242),"[3]; Enterococcus faecalis (GC 2242), broth dilution, 18 hours at 35° C.",16 mg/L
same,MIC Enterococcus faecalis (GC 2691),"[3]; Enterococcus faecalis (GC 2691), broth dilution, 18 hours at 35° C.",16 mg/L
same,MIC Enterococcus faecalis (GC 3059),"[3]; Enterococcus faecalis (GC 3059), broth dilution, 18 hours at 35° C.",16 mg/L
same,MIC Enterococcus faecalis (ATCC 29212),[3]; strain ATCC 29212,8 mg/L
same,MIC Enterococcus faecalis (GC 2242),[3]; strain GC 2242,16 mg/L
same,MIC Enterococcus faecium (GC 2243),[3]; strain GC 2243,8 mg/L
same,MIC Enterococcus faecalis (GC 2691),[3]; strain GC 2691,16 mg/L
same,MIC Enterococcus faecalis (GC 3059),[3]; strain GC 3059,16 mg/L
same,MIC Enterococcus faecalis (GC 4552),[3]; strain GC 4552,8 mg/L
same,MIC Enterococcus faecalis (GC 4553),[3]; strain GC 4553,8 mg/L
same,MIC Enterococcus faecalis (GC 4554),[3]; strain GC 4554,16 mg/L
same,MIC Enterococcus faecium (GC 4556),[3]; strain GC 4556,16 mg/L
same,MIC Enterococcus faecium (GC 4557),[3]; strain GC 4557,2 mg/L
same,MIC Enterococcus avium (GC 4558),[3]; strain GC 4558,4 mg/L
same,MIC Enterococcus faecalis (GC 6189),[3]; strain GC 6189,16 mg/L
same,MIC Coagulase Negative Staphylococcus (GC 4547),[4],4 mg/L
same,MIC Coagulase Negative Staphylococcus (GC 4548),[4],4 mg/L
same,MIC Coagulase Negative Staphylococcus (GC 4549),[4],8 mg/L
same,MIC Coagulase Negative Staphylococcus (GC 4551),[4],8 mg/L
same,MIC Coagulase Negative Staphylococcus (GC 6257),[4],2 mg/L
same,MIC Staphylococcus aureus (ATCC 29213),[4],8 mg/L
same,MIC Staphylococcus aureus (GC 1131),[4],8 mg/L
same,MIC Staphylococcus aureus (GC 3051),[4],8 mg/L
same,MIC Staphylococcus aureus (GC 3053),[4],8 mg/L
same,MIC Staphylococcus aureus (GC 4541),[4],4 mg/L
same,MIC Staphylococcus aureus (GC 4542),[4],8 mg/L
same,MIC Staphylococcus aureus (GC 4544),[4],8 mg/L
same,MIC Staphylococcus aureus (GC 4545),[4],8 mg/L
same,MIC Staphylococcus aureus SMITH (GC 4543),[4],4 mg/L
same,MIC Staphylococcus haemolyticus (GC 4546),[4],4 mg/L
same,MIC Staphylococcus aureus-SMITH (GC 4543),[4]; strain SMITH GC 4543,4 mg/L
same,"Anatomical Pathology (Day 10), Heart",[5],0
same,"Anatomical Pathology (Day 10), Kidney",[5],++
same,"median effective dose (ED50), Staphylococcus aureus-SMITH (GC 4543)",[6],2 mg/kg
